# Results taken from patent US9440957B2, “Compounds and compositions for modulating EGFR Activity” (Novartis AG, priority 2012, dated 2016).
# Where two headings read alike, the source gives them in different places.
# How the values were obtained:
# EGFR(L858R/T790M) = target: T1, EGFR(L858R/T790M) (Homo sapiens, UniProt P00533, L858R/T790M); assay: EGFR biochemical assay (HTRF), IC50 determinations
# T1 construct: purchased from Carna (GST-a.a. 669-1210)
# Method in brief: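 Two formats were run: compound preincubated at room temperature with enzyme and biotin-TK peptide before ATP starts the reaction, or no preincubation with enzyme added last. Reactions ran 60 min at room temperature and were stopped with EDTA. Phosphopeptide was read by HTRF (PT66K/SAXL, 1 h).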
# H1975 (EGFR L858/T790M) = H1975 (EGFR L858/T790M) (Homo sapiens, UniProt P00533, L858R/T790M); assay: EGFR target modulation in H1975 cell line (phospho-EGFR Y1173 ELISA); format: cell-based
# Sequence of H1975 (EGFR L858/T790M) (P00533 25-1210 T790M/L858R): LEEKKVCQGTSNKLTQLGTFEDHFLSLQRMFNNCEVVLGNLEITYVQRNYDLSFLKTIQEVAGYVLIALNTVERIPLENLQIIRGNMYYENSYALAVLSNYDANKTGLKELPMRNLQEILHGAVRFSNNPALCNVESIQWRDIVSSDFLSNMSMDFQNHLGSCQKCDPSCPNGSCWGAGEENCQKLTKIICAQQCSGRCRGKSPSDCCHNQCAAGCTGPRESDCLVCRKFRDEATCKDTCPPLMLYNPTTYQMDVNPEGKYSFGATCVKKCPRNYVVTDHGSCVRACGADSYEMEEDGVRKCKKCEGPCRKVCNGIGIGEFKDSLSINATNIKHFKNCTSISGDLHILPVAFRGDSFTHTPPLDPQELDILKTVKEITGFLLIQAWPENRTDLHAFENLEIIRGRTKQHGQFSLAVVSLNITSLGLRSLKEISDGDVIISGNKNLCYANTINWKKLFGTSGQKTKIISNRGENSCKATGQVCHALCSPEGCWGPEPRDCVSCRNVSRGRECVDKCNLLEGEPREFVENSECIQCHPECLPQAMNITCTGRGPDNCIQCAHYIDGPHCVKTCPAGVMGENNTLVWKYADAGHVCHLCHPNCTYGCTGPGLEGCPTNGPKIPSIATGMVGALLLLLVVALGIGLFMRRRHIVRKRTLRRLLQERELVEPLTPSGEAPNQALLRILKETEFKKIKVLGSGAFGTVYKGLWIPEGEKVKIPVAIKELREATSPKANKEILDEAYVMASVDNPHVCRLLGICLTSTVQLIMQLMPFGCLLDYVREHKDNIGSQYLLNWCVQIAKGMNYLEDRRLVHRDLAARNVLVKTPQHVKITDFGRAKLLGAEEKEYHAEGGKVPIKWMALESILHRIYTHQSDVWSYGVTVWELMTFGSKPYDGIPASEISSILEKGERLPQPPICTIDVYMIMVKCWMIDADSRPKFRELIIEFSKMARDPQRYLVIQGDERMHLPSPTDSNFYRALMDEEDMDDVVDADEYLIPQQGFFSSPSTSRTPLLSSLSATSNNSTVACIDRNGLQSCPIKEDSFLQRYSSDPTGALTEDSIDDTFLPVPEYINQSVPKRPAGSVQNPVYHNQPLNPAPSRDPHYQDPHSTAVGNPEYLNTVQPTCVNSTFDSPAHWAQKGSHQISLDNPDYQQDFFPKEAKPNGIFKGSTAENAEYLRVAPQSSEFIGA
# Method in brief: (§1)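 3 h compound exposure of cells in 10% FBS/RPMI, 37 °C; lysis on ice 20 min; lysate captured overnight at 4 °C on anti-EGFR-coated plates; anti-rabbit-HRP, chemiluminescence.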
# H3255 (EGFR L858R) = H3255 (EGFR L858R) (Homo sapiens, UniProt P00533, L858R); assay: EGFR target modulation in H3255 cell line (phospho-EGFR Y1173 ELISA); format: cell-based
# Method in brief: as §1
# HCC827 (Del E746-A750) = HCC827 (Del E746-A750) (Homo sapiens, UniProt P00533, DEL746-750); assay: EGFR target modulation in HCC827 cell line (phospho-EGFR Y1173 ELISA); format: cell-based
# Sequence of HCC827 (Del E746-A750) (P00533 with tags, fused parts or gaps DEL746-750): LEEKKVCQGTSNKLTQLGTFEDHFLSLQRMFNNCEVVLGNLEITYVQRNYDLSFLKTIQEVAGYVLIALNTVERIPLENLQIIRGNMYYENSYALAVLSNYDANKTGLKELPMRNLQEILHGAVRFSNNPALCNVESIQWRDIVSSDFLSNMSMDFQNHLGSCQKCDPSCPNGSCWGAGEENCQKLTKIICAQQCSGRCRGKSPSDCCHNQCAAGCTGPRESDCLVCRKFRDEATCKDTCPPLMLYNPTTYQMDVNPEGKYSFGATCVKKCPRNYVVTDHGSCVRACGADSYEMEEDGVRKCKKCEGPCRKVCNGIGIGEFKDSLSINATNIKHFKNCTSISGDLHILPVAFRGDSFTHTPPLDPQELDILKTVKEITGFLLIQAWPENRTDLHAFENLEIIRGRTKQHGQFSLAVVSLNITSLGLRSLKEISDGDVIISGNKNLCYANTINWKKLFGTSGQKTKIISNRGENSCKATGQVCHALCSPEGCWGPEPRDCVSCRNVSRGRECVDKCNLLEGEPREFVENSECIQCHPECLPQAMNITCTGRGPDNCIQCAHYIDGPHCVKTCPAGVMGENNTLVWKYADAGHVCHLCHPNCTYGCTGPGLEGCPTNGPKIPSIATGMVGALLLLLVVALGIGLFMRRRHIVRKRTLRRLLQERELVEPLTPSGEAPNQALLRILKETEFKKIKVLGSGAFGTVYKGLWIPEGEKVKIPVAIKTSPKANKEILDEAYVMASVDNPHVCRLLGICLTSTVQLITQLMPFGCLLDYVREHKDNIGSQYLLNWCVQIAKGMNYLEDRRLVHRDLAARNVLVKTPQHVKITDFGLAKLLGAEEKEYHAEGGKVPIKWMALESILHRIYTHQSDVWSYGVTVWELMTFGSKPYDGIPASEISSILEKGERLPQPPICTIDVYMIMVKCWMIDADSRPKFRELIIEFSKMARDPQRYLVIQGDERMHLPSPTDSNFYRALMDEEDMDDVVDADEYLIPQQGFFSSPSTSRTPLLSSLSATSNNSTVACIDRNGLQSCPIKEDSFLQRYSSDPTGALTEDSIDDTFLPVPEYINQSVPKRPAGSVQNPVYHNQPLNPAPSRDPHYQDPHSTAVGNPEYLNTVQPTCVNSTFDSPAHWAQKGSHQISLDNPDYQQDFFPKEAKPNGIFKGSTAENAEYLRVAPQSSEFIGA
# Description: EGFR Target Modulation in H1975, H3255 and HCC827 Cell Lines Tissue Culture. Cells were maintained in 10% FBS/RPMI supplemented with 100 μg/ml Penicillin/Streptomycin (Hyclone #SH30236.01). […] The cells were allowed to incubate overnight in a 37° C., 5% CO2 humidified tissue culture incubator. […] The serial diluted compounds were transferred to the plate containing cells by using a 50 nl Pin Head device (Perkin Elmer) and the cells were placed back in the incubator for 3 hours. Phospho-EGFR ([…]) Target Modulation Assay. The media was reduced to 20 ul using a Bio-Tek ELx 405 SelectTM plate washer. […] The plates were shaken at 4° C. for 20 minutes. An aliquot of 25 ul from each well was transferred to pEGFR(Y1173) ELISA plates for analysis. Phospho-EGFR ([…]) ELISA. Solid white high-binding ELISA plates (Greiner #781074) were coated with 5 ug/ml anti-EGFR capture antibody (R&D Systems #AF231) overnight in 50 mM carbonate/bicarbonate pH 9.5 buffer. Plates were blocked with 1% BSA (Sigma #A7030) in PBS for 1 hour at room temperature. Wash steps were carried out with a Bio-Tek ELx405 SelectTM using 4 cycles of 100 ul TBS-T (20 mM Tris, 137 mM NaCl, 0.05% Tween-20) per well. […] Lysis was allowed to occur for 20 minutes on ice. A 25 ul aliquot was added to each well of the blocked ELISA plate and incubated overnight at 4° C. with gentle shaking. […] After washing, 1:2,000 anti-rabbit-HRP (Cell Signaling #7074) in 0.2% BSA/TBS-T was added and incubated for 1 hour at room temperature. Chemiluminescent detection was carried out with SuperSignal ELISA Pico substrate (ThermoScientific #37069). Signal was read on EnVision plate reader using built-in UltraLUM setting. Data Analysis. Control cells treated with EGF were set to 100% maximum response. […] With these parameters, the IC50's for each compound in each cell line was calculated using non-linear curve fitting analysis.
# HEKn (EGFR WT) = HEKn (EGFR WT) (Homo sapiens, UniProt P00533); assay: EGFR target modulation in HEKn (EGFR-WT) cell line (phospho-EGFR Y1173 ELISA); format: cell-based; settings: value outside parentheses
# Method in brief: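 Read-out was Y1173 phosphorylation, measured by chemiluminescent ELISA with anti-EGFR capture of lysates. HEKn keratinocytes (wild-type EGFR) were treated with compound for 3 h.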
# [1] = target: human EGFR WT (NIH/3T3 cells, EGF-induced) (Homo sapiens, UniProt P00533); assay: EGFR target modulation in engineered NIH/3T3 cell lines (phospho-EGFR Y1068 AlphaLISA), EGFR WT; format: cell-based; settings: engineered NIH/3T3 cells, read-out: NIH3T3 IC50 (μM) EGFR (WT)
# Method in brief: (§2)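 Read-out is phospho-Y1068 AlphaLISA on cell lysates, with anti-total EGFR at 1 nM final equilibrated 1 h at room temperature. Cells were dosed 3 h with a 12-point 1:3 series starting from a 10 μM stock. Only the WT line received 50 ng/ml EGF for 5 min.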
# [2] = target: human EGFR L858R (NIH/3T3 cells) (Homo sapiens, UniProt P00533, L858R); assay: EGFR target modulation in engineered NIH/3T3 cell lines (phospho-EGFR Y1068 AlphaLISA), EGFR L858R; format: cell-based; settings: engineered NIH/3T3 cells, read-out: NIH3T3 IC50 (μM) EGFR (L858R)
# Method in brief: as §2
# [3] = target: human EGFR L858R/T790M (NIH/3T3 cells) (Homo sapiens, UniProt P00533, L858R/T790M); assay: EGFR target modulation in engineered NIH/3T3 cell lines (phospho-EGFR Y1068 AlphaLISA), EGFR L858R/T790M; format: cell-based; settings: engineered NIH/3T3 cells, read-out: NIH3T3 IC50 (μM) EGFR (L858R/T790M)
# Sequence of human EGFR L858R/T790M (NIH/3T3 cells) (P00533 25-1210 T790M/L858R): as the sequence (P00533 25-1210 T790M/L858R) above
# Method in brief: as §2
# [4] = EGFR (L858R/T790M) with 90 min pre-incubation, read-out: IC50 (μM) Column B
# [5] = EGFR (L858R/T790M) with no pre-incubation, read-out: IC50 (μM) Column A
# T1 sequence (P00533 669-1210 T790M/L858R): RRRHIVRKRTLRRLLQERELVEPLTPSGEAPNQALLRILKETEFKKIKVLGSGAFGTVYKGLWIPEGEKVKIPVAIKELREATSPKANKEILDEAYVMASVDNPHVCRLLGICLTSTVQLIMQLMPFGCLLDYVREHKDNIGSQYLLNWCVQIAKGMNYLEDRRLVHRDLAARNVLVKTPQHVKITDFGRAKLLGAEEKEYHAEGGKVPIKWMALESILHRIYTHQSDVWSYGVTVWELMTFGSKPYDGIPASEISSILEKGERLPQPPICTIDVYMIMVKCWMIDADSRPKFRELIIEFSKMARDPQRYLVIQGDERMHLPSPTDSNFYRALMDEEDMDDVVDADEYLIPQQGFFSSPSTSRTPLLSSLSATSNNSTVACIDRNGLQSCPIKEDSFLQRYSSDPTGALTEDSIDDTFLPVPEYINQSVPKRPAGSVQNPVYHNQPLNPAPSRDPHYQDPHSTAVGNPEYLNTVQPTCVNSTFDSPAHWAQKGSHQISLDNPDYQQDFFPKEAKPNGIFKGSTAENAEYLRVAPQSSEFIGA
Compound,IC50 (EGFR(L858R/T790M); [4]),IC50 (EGFR(L858R/T790M); [5]),IC50 (H1975 (EGFR L858/T790M)),IC50 (H3255 (EGFR L858R)),IC50 (HCC827 (Del E746-A750)),IC50 (HEKn (EGFR WT)),IC50 [1],IC50 [2],IC50 [3]
COc1cc2nc(NC(=O)c3ccnc(C)c3)n([C@@H]3CCCCN(C(=O)/C=C/CN(C)C)C3)c2cc1Cl [Example 17-178],0.006 µM,0.097 µM,117 nM,106 nM,38 nM,4200 nM,,,
C=CC(=O)N1CCCC[C@@H](n2c(NC(=O)c3ccnc(C)c3)nc3cc(CN4CC(F)(F)C4)cc(C)c32)C1 [Example 17-153],< 0.001 µM,0.002 µM,< 1 nM,2 nM,< 1 nM,61 nM,0.037 µM,0.001 µM,0.001 µM
Cc1cc(C(=O)Nc2nc3cccc(Cl)c3n2[C@@H]2CCCCN(C(=O)/C=C/CN3CC[C@@H](O)C3)C2)ccn1 [Example 3-6],< 0.001 µM,0.01 µM,25 nM,22 nM,18 nM,1250 nM,0.114 µM,0.018 µM,0.032 µM
C/C=C/C(=O)N1CCCC[C@@H](n2c(NC(=O)c3ccnc(C)c3)nc3cc(CN4CCCC4)cc(C)c32)C1 [Example 17-164],0.005 µM,0.055 µM,58 nM,73 nM,9 nM,2270 nM,,,
Cc1cc(C(=O)Nc2nc3cccc(C)c3n2[C@@H]2CCCCN(C(=O)/C=C/CN3CCCC3)C2)ccn1 [Example 3-9],< 0.001 µM,0.008 µM,7 nM,12 nM,5 nM,590 nM,,,
C/C=C/C(=O)N1CCCC[C@@H](n2c(NC(=O)c3ccnc(C)c3)nc3cc(CN4CC[C@@H](OC)C4)cc(C)c32)C1 [Example 17-163],0.005 µM,0.07 µM,43 nM,51 nM,11 nM,1260 nM,,,
C=CC(=O)N1CCCC[C@@H](n2c(NC(=O)c3ccnc(C)c3)nc3cc(CN4CCCC4)cc(C)c32)C1 [Example 17-126],< 0.001 µM,0.001 µM,< 1 nM,2 nM,< 1 nM,65 nM,0.024 µM,< 0.001 µM,< 0.001 µM
C/C=C/C(=O)N1CCCC[C@@H](n2c(NC(=O)c3cc(C)nc(C)c3)nc3cc(CN4CC[C@H](OC)C4)cc(C)c32)C1 [Example 17-162],0.004 µM,0.054 µM,38 nM,145 nM,23 nM,4600 nM,,,
Cc1cc(C(=O)Nc2nc3cccc(Cl)c3n2[C@@H]2CCCCN(C(=O)/C=C/CN3CCC(F)(F)C3)C2)ccn1 [Example 3-3],0.011 µM,0.156 µM,249 nM,320 nM,108 nM,6400 nM,> 7.6 µM,0.157 µM,0.174 µM
C=CC(=O)N1CCCC[C@@H](n2c(NC(=O)c3cc(C)nc(C)c3)nc3cc(CN4CCCC4)cc(C)c32)C1 [Example 17-113],< 0.001 µM,0.003 µM,2 nM,4 nM,< 1 nM,265 nM,0.081 µM,0.001 µM,0.001 µM
C=CC(=O)N1CCCC[C@@H](n2c(NC(=O)c3cc(C)nc(C)c3)nc3cc(CN4CC[C@@H](OC)C4)cc(C)c32)C1 [Example 17-157],< 0.001 µM,0.003 µM,2 nM,7 nM,2 nM,308 nM,,,
COc1cccc2nc(NC(=O)c3ccnc(C)c3)n([C@@H]3CCCCN(C(=O)/C=C/CN(C)C)C3)c12 [Example 17-176],< 0.001 µM,0.018 µM,14 nM,20 nM,4 nM,870 nM,,,
C=CC(=O)N1CCC[C@@H](n2c(NC(=O)c3cccc(C(F)(F)F)c3)nc3cc(C)ccc32)C1 [Example 17-105],,,27 nM,243 nM,207 nM,> 10000 nM,> 10 µM,0.149 µM,0.012 µM
O=C(Nc1nc2cccc(Cl)c2n1[C@@H]1CCCCN(C(=O)/C=C/CN2CCCC2)C1)c1ccnnc1 [Example 3-8],< 0.001 µM,0.009 µM,9 nM,10 nM,4 nM,194 nM,,,
C=CC(=O)N1CCCC[C@@H](n2c(NC(=O)c3cc(C)nc(C)c3)nc3cc(CN4CC[C@H](OC)C4)cc(C)c32)C1 [Example 17-156],< 0.001 µM,0.001 µM,< 1 nM,2 nM,< 1 nM,128 nM,,,
C/C=C/C(=O)N1CCCC[C@@H](n2c(NC(=O)c3cc(C)nc(C)c3)nc3cc(CN4CC[C@H](F)C4)cc(C)c32)C1 [Example 17-165],0.004 µM,0.054 µM,39 nM,50 nM,31 nM,4500 nM,,,
